How the values were obtained:
[1] = system: iPSC-RGC cultures; experiment: Flow cytometry analysis of iPSC-RGC cultures (CD90/Thy-1, Brn-3b, RBPMS, SNCG); type: cell-based, human; settings: flow cytometry after 35 days in vitro, three independent iPSC lines
Method: iPSCs were cultured on 0.1% gelatinized plates containing iMEFs in 37° C. 5% O2 and 5% CO2 conditions. Cells were maintained until approximately 75% confluence, then feeder cells were depleted and approximately 1.5×10^6 iPSCs were seeded in one well of 6-well tissue culture dish (Corning) coated with 1:100 diluted growth factor reduced Matrigel. iPSCs were maintained in iPSC: MEF-conditioned medium (80:20)+20 ng/mL of bFGF and 5 ng/ml of stable bFGF. The MEF-conditioned media was prepared by plating iMEFs onto 0.1% gelatin at a density of 20,000 cells/cm^2 in iPSC media. […] On day 16 of differentiation, seven conditions—1) L, 2) X, 3) 1.5 μM CHIR99021 (CHIR) (Wnt agonist; SelleckChem), 4) LX, 5) LSB, 6) LSB-CHIR and 7) LSBX were evaluated for RPC and RGC markers on day 23. Cultures from the following four conditions—1) LSBX, 2) LSB, 3) LX, and 4) 1.5 μM CHIR99021 (CHIR) (Wnt agonist; SelleckChem) were further evaluated at 35. An additional five conditions—1) L only, 2) X only, 3) LSB, 4) LSBX, and 5) LSB-CHIR were evaluated for RPC markers on day 23 to evaluate for transcript expression differences across different conditions in RPCs. […]

[2] = system: sonic hedgehog; experiment: RGC induction with SHH or SAG; type: cell-based, human; settings: 100 nM, day 22-23
Method: Prior to RGC differentiation, medium was changed daily using RGC induction media containing SHH (sonic hedgehog) (250 ng/mL; R&D systems) or SAG (100 nM; Tocris), SHH was replaced with SAG after establishing equal competence, FGF8 (100 ng/mL, R&D systems) for two days. For RGC differentiation (see FIGS. 1D and 2B for kinetics), on day 24, cells were manually crossed into small clusters with Leibovitz's medium containing […] Glucose using the crosshatching technique as previously described (Espuny-Camacho et al., 2013), then replated at a density of 1.0×10^5 cells/well of 6-well plate coated with 1:100 diluted growth factor reduced Matrigel in RGCs induction media containing: Follistatin 300 (100 ng/ml), cyclopamine (0.5 uM, Tocris), DAPT (3 uM, Tocris), and 4.2 μM Rock inhibitor (Y27632). Media was changed 24 h post-plating with RGC induction media containing: Follistatin 300 (100 ng/ml) and DAPT (3 uM), daily for two days. From day 27, media was changed to RGC induction media containing: DAPT (3 uM, Tocris), 10 μM Rock inhibitor (Y27632), forskolin (5 uM; SelleckChem), cAMP (400 uM; Sigma-Aldrich), BDNF (40 ng/mL; R&D systems), NT4 (5 ng/mL; R&D systems), and CNTF (10 ng/mL; R&D systems). Media was changed every 2-3 days until day 36. […]

[3] = system: SIRT1 pathway; settings: mouse models of optic neuritis and optic nerve trauma; cited from earlier work

**Q.** For `Cc1c[nH]c(-c2cnc(NCCNc3ccc(C#N)cn3)nc2-c2ccc(Cl)cc2Cl)n1` [CHIR, CHIR99021], which “Thy-1 (CD90) positive cells” value [1] is on record?
**A.** 22.5%

**Q.** With `CNC1CCC(N(Cc2cccc(-c3ccncc3)c2)C(=O)c2sc3ccccc3c2Cl)CC1` (stereo not drawn) [SAG] as the molecule, how does the “RGC induction compared with SHH” value [2] read?
**A.** no difference in RGC induction changes

**Q.** Which “visual function and RGC survival” value [3] does the source give for `Oc1ccc(C=Cc2cc(O)cc(O)c2)cc1` [resveratrol] here?
**A.** preserves visual function and RGC survival

— patent publication US20230042830A1, “COMPOSITIONS AND METHODS FOR GENERATION OF RETINAL GANGLION CELLS FROM INDUCIBLE PLURIPOTENT STEM CELLS FOR THE TREATMENT OF PROGRESSIVE OPTIC NEUROPATHIES, INCLUDING GLAUCOMA” (THE TRUSTEES OF THE UNIVERSITY OF PENNSYLVANIA, priority 2021, published 2023)
